Test results: the supplement of paper PMC11061612

What was measured:
Assay in all cases: combination Emax (second highest fraction inhibited in the dose matrix, 72 h); higher = more inhibition; extreme values may be limits of the assay
[1] = tested on: DND-41 (T-Lymphoblastic Leukemia)
How it was run: (§1)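 Cell lines grown in DMEM/F12 or RPMI with 10% FBS were plated in 1536-well plates and held 24 hours at 37°C, 5% CO2 before 72 hours of exposure to two-drug dose matrices, with DMSO typically at 0.2%. CellTiter-Glo 2.0 luminescence gave viability, which was converted to inhibition. Vehicle wells were set to 0 and blank wells to 1. Combination Emax is the second-highest inhibition in the matrix, and Bliss excess is the observed combination effect minus the expected EA + EB − EA·EB, where EA and EB are the single-agent effects.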

[2] = tested on: HL-60 (Acute Myeloid Leukemia)
How it was run: as §1

[3] = tested on: KCL-22 (Chronic Myelogenous Leukemia)
How it was run: as §1

[4] = tested on: COLO-678 (Colorectal Carcinoma)
How it was run: as §1

[5] = tested on: KARPAS-45 (T-Lymphoblastic Leukemia)
How it was run: as §1

[6] = tested on: BL-41 (Burkitt's Lymphoma)
How it was run: as §1

[7] = tested on: MS751 (Cervical Carcinoma)
How it was run: as §1

[8] = tested on: SU-DHL-8 (B-Cell Non-Hodgkin's Lymphoma)
How it was run: as §1

[9] = tested on: KM12 (Colorectal Carcinoma)
How it was run: as §1

[10] = tested on: SW1417 (Colorectal Carcinoma)
How it was run: as §1

[11] = tested on: L-540 (Hodgkin's Lymphoma)
How it was run: as §1

[12] = tested on: BFTC-905 (Bladder Carcinoma)
How it was run: as §1

CHP-212 (Neuroblastoma) = tested on: CHP-212 (Neuroblastoma)
How it was run: as §1

[13] = tested on: SR (Other Blood Carcinomas)
How it was run: as §1

[14] = tested on: CAMA-1 (Breast Carcinoma)
How it was run: as §1

[15] = tested on: NCI-H1792 (Lung Adenocarcinoma)
How it was run: as §1

[16] = tested on: MFM-223 (Breast Carcinoma)
How it was run: as §1

[17] = tested on: MOLT-16 (T-Lymphoblastic Leukemia)
How it was run: as §1

[18] = tested on: PANC-08-13 (Pancreatic Carcinoma)
How it was run: as §1

[19] = tested on: TOV-112D (Ovarian Carcinoma)
How it was run: as §1

| Structure (SMILES) | combination Emax [1] | combination Emax [2] | combination Emax [3] | combination Emax [4] | combination Emax [5] | combination Emax [6] | combination Emax [7] | combination Emax [8] | combination Emax [9] | combination Emax [10] | combination Emax [11] | combination Emax [12] | combination Emax (CHP-212 (Neuroblastoma)) | combination Emax [13] | combination Emax [14] | combination Emax [15] | combination Emax [16] | combination Emax [17] | combination Emax [18] | combination Emax [19] |
| --- | --- | --- | --- | --- | --- | --- | --- | --- | --- | --- | --- | --- | --- | --- | --- | --- | --- | --- | --- | --- |
| C[C@@H](c1ccc2nccn2c1)n1nnc2ncc(-c3cnn(C)c3)nc21 [Savolitinib] + Cc1c2c(nn1C)CSCc1cc(n(C)n1)CSc1cc(c3ccccc3c1)OCCCc1c(C(=O)O)n(C)c3c-2c(Cl)ccc13 [AZD5991] (first compound max 1 µM, 7x7, partner max 1 µM) | 0.172 | 1 | 0.289 | 0.161 | 0.882 | 1 | 0.773 | 0.697 | 0.159 | 0.161 | 0.975 | 0.191 | 0.787 | 0.772 | 0.494 | 0.214 | 0.244 | 1 | 0.146 | 0.395 |
| Cn1cnc2c(F)c(Nc3ccc(Br)cc3Cl)c(C(=O)NOCCO)cc21 [Selumetinib] + C=CCn1c(=O)c2cnc(Nc3ccc(N4CCN(C)CC4)cc3)nc2n1-c1cccc(C(C)(C)O)n1 [AZD1775] (first compound max 10 µM, partner max 1 µM) | 0.898 | 0.712 | 0.943 | 0.52 | 0.909 | 1 | 0.575 | 1 | 0.884 | 0.704 | 0.905 | 0.665 | 0.978 | 0.978 | 0.148 | 0.632 | 0.446 | 1 | 0.305 | 0.48 |
| Cn1cnc2c(F)c(Nc3ccc(Br)cc3Cl)c(C(=O)NOCCO)cc21 [Selumetinib] + CC(C)n1c(=O)n(C)c2cnc3cc(F)c(-c4ccc(OCCCN5CCCCC5)nc4)cc3c21 [AZD1390] (first compound max 10 µM, 7x7, partner max 0.3 µM) | 0.157 | 0.743 | 0.478 | 0.502 | 0.0319 | 0.209 | 0.144 | 0.0761 | 0.657 | 0.437 | 0.0301 | 0.606 | 0.923 | 0.129 | 0.0892 | 0.378 | 0.0965 | 0.277 | 0.111 | 0.138 |
| Cn1cnc2c(F)c(Nc3ccc(Br)cc3Cl)c(C(=O)NOCCO)cc21 [Selumetinib] + CCN(CCO)CCCOc1ccc2c(Nc3cc(CC(=O)Nc4cccc(F)c4)[nH]n3)ncnc2c1 [AZD2811] (first compound max 10 µM, 7x7, partner max 1 µM) | 0.199 | 0.918 | 0.593 | 0.51 | 0.926 | 0.629 | 0.639 | 0.354 | 0.676 | 0.559 | 0.194 | 0.781 | 0.972 | 0.942 | 0.22 | 0.423 | 0.17 | 1 | 0.22 | 0.349 |
| Cn1cnc2c(F)c(Nc3ccc(Br)cc3Cl)c(C(=O)NOCCO)cc21 [Selumetinib] + C[C@@H]1COCCN1C2=NC(=NC(=C2)C3(CC3)[S@](=N)(=O)C)C4=C5C=CNC5=NC=C4 [AZD6738] (first compound max 10 µM, 7x7, partner max 10 µM) | 0.897 | 0.819 | 0.984 | 0.466 | 0.868 | 0.989 | 0.476 | 0.936 | 0.825 | 0.583 | 0.889 | 0.784 | 0.989 | 0.889 | 0.319 | 0.76 | 0.673 | 1 | 0.239 | 0.657 |
| CC(=O)Nc1cccc(-n2c(=O)n(C3CC3)c(=O)c3c(Nc4ccc(I)cc4F)n(C)c(=O)c(C)c32)c1 [Trametinib] + Cc1nc(-c2cn3c(n2)-c2ccc(-c4cnn(C(C)(C)C(N)=O)c4)cc2OCC3)n(C(C)C)n1 [Taselisib] (first compound max 1 µM, 7x7, partner max 10 µM) | 0.369 | 0.958 | 0.801 | 0.608 | 0.755 | 0.319 | 0.438 | 0 | 0.84 | 0.775 | 0.36 | 1 | 1 | 0.719 | 0.491 | 1 | 0.865 | 0.776 | 0.655 | 0.641 |
